Values joined by “and” are separate entries in the source; they are usually repeats but may differ in a detail not shown here. Equal values may be shown once. Active and inactive are the calls of the source.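 The calls were made as follows: active = EC50 under a set limit in control cells lacking the mosquito receptor, marking a fluorescence artifact; inactive = the rest.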
What follows are compounds tested against HEK293 Galpha15/GCaMP6s without NPYLR7, calcium fluorescence (assay: nonspecific activation in parental Galpha15/GCaMP6s cells – cell-based, HEK293 lacking NPYLR7, counter-screen for mosquito NPYLR7 agonist project, dose response (AID 1259426);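 also: potency for a rise in fluorescence over baseline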).

Row | SMILES | EC50
1 | CN=c1nc(-c2ccccc2)n(-c2ccccc2)s1 | > 20 µM (inactive)
2 | NCCNc1ccc2c3c(cccc13)C(=O)N(c1ccc(Cl)cc1)C2=O | 0.47 µM
3 | Cc1ccc(C2=NN(C(=O)CN3CCN(C)CC3)C(c3ccccc3Cl)C2)cc1 (centres undefined) | > 20 µM (inactive)
4 | CC1C(=O)N(c2cccc(F)c2)CCN1C(=O)C1CC1 (centres undefined) | > 20 µM (inactive)
5 | O=C(O)c1csc(CSc2nnc(Cc3ccccc3)n2-c2cccc(C(F)(F)F)c2)n1 | > 20 µM (inactive)
6 | CN1CCc2c(sc(NC(=O)Cc3ccccc3)c2-c2nc3ccccc3s2)C1 | > 20 µM (inactive)
7 | CC1N(C)c2ccc(C=Cc3cc[n+](C)cc3)cc2C1(C)C (centres undefined) | 8.49 µM
8 | NC(=NCCCCCCN=C(N)N=C(N)Nc1ccc(Cl)cc1)N=C(N)Nc1ccc(Cl)cc1 | > 20 µM (inactive)
9 | Cc1ccccc1CNc1ncnc2c1ncn2C1OC(CO)C(O)C1O (centres undefined) | 6.77 µM
10 | CNC(=O)c1cnc(/C=C/c2csc(-c3ccsc3)n2)[nH]c1=O | > 20 µM (inactive)
11 | Cc1cc(O)c(CN2CCCC2)c2c1C(=O)/C(=C/c1cc3ccccc3o1)O2 | > 20 µM (inactive)
12 | COc1ccc(NCc2ccc(OC)c(Br)c2)cn1 | 5.12 µM
13 | O=C(CSc1cn(CC(=O)N2CCCCCC2)c2ccccc12)NC1CCCC1 | > 20 µM (inactive)
14 | COc1cc(C=C(C#N)S(=O)(=O)c2ccc(F)cc2)cc(Br)c1O | > 20 µM (inactive)
15 | C=CCC1=CC(=Cc2c(N)n3nc(Cc4cccs4)sc3nc2=O)C=C(OC)C1=O | 2.43 µM
16 | OCCN(CCO)c1nc(N2CCCCC2)c2nc(N(CCO)CCO)nc(N3CCCCC3)c2n1 | 3.58 µM and 1.94 µM
17 | N#CC(=Cc1c(F)c(F)c(F)c(F)c1F)c1ccccn1 | > 20 µM (inactive)
18 | CC(C)C(=O)Nc1sc2c(c1-c1nc3ccccc3s1)CCN(C)C2 | > 20 µM (inactive)
19 | COc1cc(Br)c(O)c(/C=N\n2c(C)n[nH]c2=S)c1 | > 20 µM (inactive)
20 | COc1cc(C=C2C=c3c(O)cccc3=C2O)cc(Cl)c1O | 0.524 µM
21 | Nc1ncnc2c1ncn2[C@@H]1O[C@H](CO)[C@@H](O)[C@H]1O | < 0.039 µM
22 | CC1(C)CC(=O)C2C(=Nc3[nH]c(=S)[nH]c(=O)c3C2c2ccc3c(c2)OCO3)C1 (centres undefined) | > 20 µM (inactive)
23 | CCCCNC(=O)CCCCCNC(N)=O | > 20 µM (inactive)
24 | CCCC(C(=O)O)N1C(=O)/C(=C/c2ccc(O)cc2)SC1=S (centres undefined) | 8.28 µM
25 | CCOc1cc(/C=C2/Oc3cc(O)ccc3C2=O)cc(Cl)c1OCC(=O)N(C)C | > 20 µM (inactive)
26 | CCN(CC)Cc1c(O)cc(C)c2c1O/C(=C\c1cc3ccccc3o1)C2=O | 9.1 µM

Row | SMILES | EC50
27 | CC1CCCCC1OCCNC(=O)C1(c2ccc(F)cc2)CCC1 (centres undefined) | > 20 µM (inactive)
28 | O=C1/C(=C/c2cc3ccccc3o2)Oc2c1ccc(O)c2CN1CCN(CCO)CC1 | 1.94 µM
29 | O=C1NC(=S)SC1=Cc1cc(O)c(O)c(Cl)c1 | > 20 µM (inactive)
30 | FC(F)(F)c1ccc(-c2nc3ccc(Cl)cn3c2NCc2ccccc2)cc1 | > 20 µM (inactive)
31 | Fc1cc(F)cc(C2C=C(c3ccco3)Nc3ncnn32)c1 (centres undefined) | 8.31 µM
32 | Cc1ccc2c(c1)CCCN2CC(=O)N(CCC(N)=O)c1ccccc1 | 16.8 µM
33 | CC(C)Nc1ccc(NS(=O)(=O)NCc2ccccc2)cn1 | > 20 µM (inactive)
34 | Cn1c(/C(C#N)=C/c2ccc(N3CCOCC3)o2)nc2ccccc21 | > 20 µM (inactive)
35 | CCOc1ccc(/C=C2N=C(/C=C/c3ccccc3)OC/2=O)cc1 | > 20 µM (inactive)
36 | C#CCN1C(=O)SC(=Cc2ccc(N3CCCCC3)o2)C1=O | 2.36 µM
37 | Cc1oc(-c2cccc(NC(=O)CC(C)C)c2)nc1CNC(=O)Cc1cc(F)cc(F)c1 | > 20 µM (inactive)
38 | COc1cc(/C=C2\SC(=S)N(C(CC(=O)O)C(=O)O)C2=O)ccc1O (centres undefined) | 9.71 µM
39 | CCCCN(CC(=O)Nc1c(-c2ccccc2)c(C)nn1-c1ccccc1C)S(=O)(=O)c1ccc(F)cc1 | > 20 µM (inactive)
40 | Cc1ccc(Cl)c(Oc2cc(N3CCN(C(=O)c4ccc(Cl)c(Cl)c4)CC3)ncn2)c1 | > 20 µM (inactive)
41 | CCc1nc(N=C(N)N)nc2cc(C)ccc12 | > 20 µM (inactive)
42 | COc1cc(OC)c(C2=NOC3(CC(=O)N(c4cccc(Cl)c4)C3=O)C2)cc1OC (centres undefined) | > 20 µM (inactive)
43 | COc1ccc(S(=O)(=O)NCC2CCCN(C(=O)CSc3ccccc3)C2)cc1 (centres undefined) | > 20 µM (inactive)
44 | N#CC(C#N)=C1C=C2C=C(N3CCN(Cc4ccccc4)CC3)CCC2CC1 (centres undefined) | > 20 µM (inactive)
45 | O=C(O)c1csc(CSc2nnc(-c3ccncc3)n2-c2cccc(C(F)(F)F)c2)n1 | > 20 µM (inactive)
46 | CC(=O)[C@]1(O)Cc2c(O)c3c(c(O)c2[C@@H](O[C@H]2C[C@H](N)[C@H](O)[C@H](C)O2)C1)C(=O)c1ccccc1C3=O | 4.29 µM
47 | CC(=O)Nc1nc(COC(=O)c2[nH]c(C)c(C(=O)OC(C)C)c2C)cs1 | > 20 µM (inactive)
48 | CSc1ccc(C2CC(c3cccs3)=Nc3ncnn32)cc1 (centres undefined) | 1.4 µM
49 | CCN(CC)CCNC(=O)c1c(C)[nH]c(/C=C2/C(=O)Nc3ccc(F)cc32)c1C | 11.3 µM
50 | O=C1c2ccccc2C(=O)C1c1ccnc2ccccc12 | 17.3 µM
51 | Cn1c(C(C#N)=Cc2c(F)c(F)c(F)c(F)c2F)nc2ccccc21 | < 0.039 µM
52 | CCCC[n+]1c(C)cc(C=C2Sc3ccccc3N2C)cc1C | > 20 µM (inactive)

Row | SMILES | EC50
53 | O=C(O)c1ccccc1-c1c2cc(Br)c(=O)cc-2oc2[c]([Hg])c(O)c(Br)cc12 | < 0.039 µM
54 | CCCCCn1c(=O)c2c(nc3n2CCN3c2cc(C)cc(C)c2)n(C)c1=O | > 20 µM (inactive)
55 | CCOc1cccc(C=C2Oc3cc(O)ccc3C2=O)c1OC | > 20 µM (inactive)
56 | COc1cc(C=C(C#N)S(=O)(=O)c2cc(Cl)ccc2Cl)cc(Br)c1O | 6.43 µM
57 | CC1=CC(C)C(C(=O)O)C(C(=O)O)C1 (centres undefined) | > 20 µM (inactive)
58 | CCOc1ccc2nc3cc(N)ccc3c(N)c2c1 | 4.44 µM
59 | CN(Cc1ccccc1)C1=CC2=CC(=C(C#N)C#N)CCC2CC1 (centres undefined) | > 20 µM (inactive)
60 | COc1ccc(C(=O)C=Cc2cc(OC)c(O)c(OC)c2)cc1F | 5.86 µM
61 | CN1C(=CC=C2C(=O)CC(C)(C)CC2=O)C(C)(C)c2ccccc21 | 13.1 µM
62 | CC(C(=O)O)N1C(=O)/C(=C\c2ccc(O)cc2)SC1=S (centres undefined) | 12.1 µM
63 | Nc1c(S(=O)(=O)O)cc2c3c(cccc13)C(=O)N(CCO)C2=O | 0.154 µM
64 | Nc1nc(Cl)nc2c1ncn2[C@@H]1O[C@H](CO)[C@H](O)C1O (some centres undefined) | 1.42 µM
65 | COc1ccccc1N=c1oc2cc(O)ccc2cc1-c1nc2ccccc2[nH]1 | 0.805 µM
66 | O=C(O)CCn1c(O)c(C=C2C=Nc3ccccc32)sc1=S | 12 µM
67 | CCNc1ccc(OC)nc1 | > 20 µM (inactive)
68 | O=c1[nH]c(CCl)nc2sc3c(c12)CCN(Cc1ccccc1)C3 | > 20 µM (inactive)
69 | C[C@@H](NC(=O)CN1Cc2ccc(N3CCOCC3)nc2C1=O)c1ccccc1 | > 20 µM (inactive)
70 | COc1cc(/C=C2\C(=N)N3N=CSC3=NC2=O)cc(Br)c1OC(=O)c1ccco1 | 10 µM
71 | Cc1cccc(C2=N/C(=C\c3cc4cc5c6c(c4oc3=O)CCCN6CCC5)C(=O)O2)c1 | 0.219 µM
72 | COc1ccc(C(=O)C=Cc2cc(Br)c(O)c(OC)c2)cc1F | < 0.039 µM
73 | O=C(O)CSc1ccc2c3c(cccc13)C(=O)c1ccccc1-2 | 0.294 µM
74 | CN(Cc1cnc2ccccc2n1)C(=O)C1CC2(CCNCC2)CN1 (centres undefined) | > 20 µM (inactive)
75 | Nc1ccc2c3c(cccc13)C(=O)NC2=O | 2.07 µM
76 | NC(=O)CN1c2cccc3cccc(c23)S1(=O)=O | > 20 µM (inactive)
77 | O=C1/C(=C/c2cccc(F)c2)Oc2c1ccc(O)c2CN1CCN(CCO)CC1 | 13.9 µM
78 | O=C(C1=NN(c2ccccc2)C2C(=O)N(c3ccccc3)C(=O)C12)c1ccccc1 (centres undefined) | > 20 µM (inactive)

Row | SMILES | EC50
79 | COc1cc(C(=O)N2CCOC(c3ccccc3)C2)cc(OC)c1C (centres undefined) | > 20 µM (inactive)
80 | N#Cc1c(N)nc2c(c1N)C(Sc1ccccc1)c1ccc(O)cc1O2 (centres undefined) | < 0.039 µM
81 | O[C@@H]1CN(Cc2ccncc2Cl)CC[C@H]1c1ccc2c(c1)OCO2 | > 20 µM (inactive)
82 | Nc1ccc(-c2nc3cc(N)cc(Cl)c3o2)cc1 | 17 µM
83 | O=[N+]([O-])c1ccc(-n2nc3ccc4nonc4c3n2)cc1 | > 20 µM (inactive)
84 | CCn1c(=O)c2c(nc(/C=C/c3ccc(OC)c(OC)c3)n2C)n(CC)c1=O | > 20 µM (inactive)
85 | Nc1ccc(Oc2cc(N)cc(Oc3ccccc3)c2)cc1 | 18.3 µM
86 | COc1ccc(NC(=O)CN2C(=O)c3ccccc3NC23CCN(C)CC3)cn1 | > 20 µM (inactive)
87 | CCOc1ccc(C(=O)Nc2sc3c(c2-c2nc4ccccc4s2)CCN(C)C3)cc1 | > 20 µM (inactive)
88 | CCC(C)[n+]1c(C)cc(C=C2Sc3ccccc3N2CC)cc1C (centres undefined) | 3.73 µM
89 | COc1ccc(-n2ccnc2-c2nc(-c3cccs3)oc2C)cn1 | > 20 µM (inactive)
90 | Nc1c2c(nc3sc4c(c13)CCCC4)CCCCC2 | > 20 µM (inactive)
91 | O=c1[nH]c(SCCO)nc2sc3c(c12)CCCC3 | > 20 µM (inactive)
92 | Cc1cc(O)c(CN2CCCCC2)c2c1C(=O)/C(=C/c1cc3ccccc3o1)O2 | 18.5 µM
93 | Nc1ccc2c3c(cccc13)C(=O)N(c1ccccc1)C2=O | 0.415 µM
94 | COc1cccc(/C=C2\Oc3c(ccc4c3CN(Cc3ccncc3)CO4)C2=O)c1 | 10.5 µM
95 | COc1ccc(CCN2COc3ccc4c(c3C2)O/C(=C\c2ccncc2)C4=O)cc1OC | 14.8 µM
96 | O=C(CC(c1cccc([N+](=O)[O-])c1)c1c[nH]c2ccccc12)NC1CC1 (centres undefined) | > 20 µM (inactive)
97 | O=[N+]([O-])c1c[n+]([O-])n(-c2cccc(Cl)c2)n1 | > 20 µM (inactive)
98 | CCOC(=O)C1=C(O)/C(=C\c2ccc(N(C)C)cc2)SC1=Nc1ccc(OC)cc1OC | > 20 µM (inactive)
99 | N#CC1C(=N)Oc2cc(O)ccc2C1c1ccc(Cl)cc1Cl (centres undefined) | 11.9 µM
100 | O=C1/C(=C/c2cccc(Br)c2)Oc2c1ccc(O)c2CN1CCN(CCO)CC1 | 12.7 µM
101 | N#CC(C#N)=C1C=C2C=C(N3CCCCC3)CCC2CC1 (centres undefined) | < 0.039 µM
102 | N#C/C(=C\c1ccc(O)c(O)c1)C(=O)NCc1ccccc1 | > 20 µM (inactive)
103 | COc1cc(OC)cc(C(=O)N2CCN(C(C(=O)Nc3ccc(NC(C)=O)cc3)C3CCCC3)CC2)c1 (centres undefined) | > 20 µM (inactive)
104 | CCOc1cc(C=O)c(O)c(C=O)c1 | 0.893 µM
